Tests used:
Type in all cases: functional, cell-based
C6 = assay: Cytotoxicity against rat C6 cells assessed as reduction in cell viability incubated for 72 hrs by Celltiter-Glo assay; details: C6, 72 h
Huh-7 = assay: Cytotoxicity against human Huh-7 cells assessed as reduction in cell viability incubated for 72 hrs by Celltiter-Glo assay; details: Huh-7, 72 h
[1] = Cytotoxicity against human HCCLM3 cells assessed as reduction in cell viability incubated for 72 hrs by Celltiter-Glo assay; details: HCCLM3, 72 h
PANC-1 = assay: Cytotoxicity against human PANC-1 cells assessed as reduction in cell viability incubated for 72 hrs by Celltiter-Glo assay; details: PANC-1, 72 h
HeLa = assay: Cytotoxicity against human HeLa cells assessed as reduction in cell viability incubated for 72 hrs by Celltiter-Glo assay

| Structure (SMILES) | IC50 (C6) | IC50 (Huh-7) | IC50 [1] | IC50 (PANC-1) | IC50 (HeLa) |
| --- | --- | --- | --- | --- | --- |
| C=C1C(=O)C2=C3[C@@H](CC[C@H]4C(=C)C(=O)O[C@@H]4[C@@H]13)CC[C@]21C(=O)C[C@H]2C(=C)CC[C@H]3C(=C)C(=O)O[C@@H]3[C@H]21 | 6.4 µM | > 10 µM | > 10 µM | > 10 µM | > 10 µM |
| C=C1C(=O)O[C@@H]2[C@@H]3C4=C(C(=O)[C@H]3C)[C@]3(CC[C@@]4(O)CC[C@@H]12)C(=O)C[C@H]1C(=C)CC[C@@H]2[C@H](OC(=O)[C@H]2C)[C@H]13 | 3.1 µM | 4.1 µM | > 10 µM | 4.9 µM | 6.5 µM |
| C=C1C(=O)O[C@@H]2[C@@H]3C4=C(C(=O)[C@H]3CO)[C@]3(CC[C@]4(O)CC[C@@H]12)C(=O)C[C@H]1C(=C)CC[C@H]2C(=C)C(=O)O[C@@H]2[C@H]13 | > 10 µM | > 10 µM | > 10 µM | > 10 µM | > 10 µM |
| C=C1C(=O)C2=C3[C@H]1[C@H]1OC(=O)C(CO)=C1CC[C@]3(O)CC[C@]21C(=O)C[C@H]2C(=C)CC[C@H]3C(=C)C(=O)O[C@@H]3[C@H]21 | 9.9 µM | > 10 µM | > 10 µM | > 10 µM | > 10 µM |
| C=C1C(=O)C2=C3[C@H]1[C@H]1OC(=O)C(=C)[C@@H]1CC[C@]3(O)CC[C@]21C(=O)[C@H](C[C@@H]2C(=O)C[C@H]3C(=C)CC[C@H]4C(=C)C(=O)O[C@@H]4[C@@H]23)[C@H]2C(=C)CC[C@H]3C(=C)C(=O)O[C@@H]3[C@H]21 | 0.7 µM | 2.5 µM | 8.3 µM | 0.4 µM | 1.3 µM |
| C=C1C(=O)C2=C3[C@H](CC[C@H]4C(=C)C(=O)O[C@@H]4[C@@H]13)CC[C@]21C(=O)C[C@H]2C(=C)CC[C@H]3C(=C)C(=O)O[C@@H]3[C@H]21 | > 10 µM | > 10 µM | > 10 µM | > 10 µM | > 10 µM |
| C=C1C(=O)C2=C3[C@H]1[C@H]1OC(=O)C(=C)[C@@H]1CC[C@@]3(O)CC[C@]21C(=O)C[C@H]2C(=C)CC[C@H]3C(=C)C(=O)O[C@@H]3[C@H]21 | > 10 µM | > 10 µM | > 10 µM | 5.4 µM | > 10 µM |
| C=C1C(=O)C2=C3[C@H](CC[C@H]4C(=C)C(=O)O[C@@H]4[C@@H]13)CC[C@@]21C(=O)C2=C3[C@H]1[C@H]1OC(=O)C(=C)[C@@H]1CC[C@@]3(O)CC[C@]21C(=O)C[C@H]2C(=C)CC[C@H]3C(=C)C(=O)O[C@@H]3[C@H]21 | 2.1 µM | 7.5 µM | > 10 µM | 2.5 µM | 7 µM |
| C=C1C(=O)C2=C3[C@H]1[C@H]1OC(=O)C(=C)[C@@H]1CC[C@]3(O)CC[C@]21C(=O)C[C@H]2C(=C)CC[C@H]3C(=C)C(=O)O[C@@H]3[C@H]21 | 1.2 µM | 2.5 µM | > 10 µM | 2.2 µM | 2.8 µM |
| C=C1C(=O)O[C@@H]2[C@@H]3[C@@H](C[C@@]4(O)[C@]3(O)CC[C@]43C(=O)C[C@H]4C(=C)CC[C@H]5C(=C)C(=O)O[C@@H]5[C@H]43)C(=C)CC[C@@H]12 | 4.3 µM | 4.4 µM | > 10 µM | 9.9 µM | 5.3 µM |
